Data reported in patent US7160881B2, “Crystalline modifications of 2-(3,5-bis-trifluoromethyl-phenyl)-N-[6-(1,1-dioxo-1 λ6-thiomorpholin-4-yl)-4-(4-fluoro-2-methyl-phenyl)-pyridin-3-yl]-N-methyl-isobutyramide” (Hoffmann-La Roche Inc., priority 2003, dated 2007).
Where two headings read alike, the source gives them in different places.

Columns and labels:
[1] = Pharmacokinetics after single oral administration to fed male beagle dogs (plasma concentrations by LC-MS, non-compartmental analysis); assay type: in vivo; conditions: for bioavailability (general statement of the description): A: formulations compared with those of B or C modification, amorphous: in microsuspension form; for AUC(0-t): read-out: AUC(0–24 h); for concentration at 24 h: read-out: C(24 h)
Method: Four male beagle dogs (age 5 to 6 years, body weight 11 to 14 kg) received single oral doses of 2 mg/kg of 2-(3,5-bis-trifluoromethyl-phenyl)-N-[6-(1,1-dioxo-1λ^6-thiomorpholin-4-yl)-4-(4-fluoro-2-methyl-phenyl)-pyridin-3-yl]-N-methyl-isobutyramide form A and form B (cross-over study design). The formulation was a granulate of the finely milled compound with 20% sodium dodecyl sulfate (SDS) in gelatine capsules.
In addition, four male beagle dogs (age 4 to 7 years, body weight 11 to 14 kg) received a single oral dose of 2 mg/kg of 2-(3,5-bis-trifluoromethyl-phenyl)-N-[6-(1,1-dioxo-1λ^6-thiomorpholin-4-yl)-4-(4-fluoro-2-methyl-phenyl)-pyridin-3-yl]-N-methyl-isobutyramide form C as finely milled compound with 10% SDS in gelatine capsules. The dogs received 200 g commercial dog chow (Pal®, approx. 7% fat content) about 30 minutes before administration of the compound.
Two dogs (age 8 years, body weight 12 to 14 kg) received 5 mg/kg of 2-(3,5-bis-trifluoromethyl-phenyl)-N-[6-(1,1-dioxo-1λ^6-thiomorpholin-4-yl)-4-(4-fluoro-2-methyl-phenyl)-pyridin-3-yl]-N-methyl-isobutyramide as amorphous material orally by gavage as microsuspension. The dogs were fed before and during the experiment.
Plasma samples were drawn at several time points. 2-(3,5-bis-Trifluoromethyl-phenyl)-N-[6-(1,1-dioxo-1λ^6-thiomorpholin-4-yl)-4-(4-fluoro-2-methyl-phenyl)-pyridin-3-yl]-N-methyl-isobutyramide plasma concentrations were determined using a selective LC-MS method with a quantification limit of 10 ng/mL. Pharmacokinetic parameters (e.g. AUC, Cmax) were estimated by non-compartmental analysis using WinNonlin 3.1®.

[2] = Dynamic Vapor Sorption (DVS); assay type: physicochemical; conditions: from 0 to 90% RH
Excerpt: Dynamic Vapor Sorption (DVS)

[3] = dog Charly, single oral 2 mg/kg, fed male beagle dog, cross-over, granulate with 20% SDS in gelatine capsules, 2 mg/kg
[4] = dog Lars, single oral 2 mg/kg, fed male beagle dog, cross-over, granulate with 20% SDS in gelatine capsules, 2 mg/kg
[5] = dog Lupo, single oral 2 mg/kg, fed male beagle dog, cross-over, granulate with 20% SDS in gelatine capsules, 2 mg/kg
[6] = dog Mickey, single oral 2 mg/kg, fed male beagle dog, cross-over, granulate with 20% SDS in gelatine capsules, 2 mg/kg
[7] = male, beagle, dog, plasma, po, 2 mg/kg, dog Lars, single oral 2 mg/kg, fed male beagle dog, cross-over, granulate with 20% SDS in gelatine capsules
[8] = male, beagle, dog, plasma, po, 2 mg/kg, mean, n=4, single oral 2 mg/kg, fed male beagle dogs, cross-over, granulate with 20% SDS in gelatine capsules
[9] = mean, n=4, single oral 2 mg/kg, fed male beagle dogs, cross-over, granulate with 20% SDS in gelatine capsules, 2 mg/kg
[10] = single oral 2 mg/kg, fed male beagle dogs, cross-over
[11] = male, beagle, dog, plasma, po, 2 mg/kg, mean, n=4, single oral 2 mg/kg, fed male beagle dogs, finely milled compound with 10% SDS in gelatine capsules
[12] = single oral 2 mg/kg, fed male beagle dogs
[13] = beagle, dog, plasma, po, 5 mg/kg, mean, n=2, single oral 5 mg/kg by gavage as microsuspension, fed dogs

Cc1cc(F)ccc1-c1cc(N2CCS(=O)(=O)CC2)ncc1N(C)C(=O)C(C)(C)c1cc(C(F)(F)F)cc(C(F)(F)F)c1 [Example 7, 2-(3,5-Bis-trifluoromethyl-phenyl)-N-[6-(1,1-dioxo-1λ^6-thiomorpholin-4-yl)-4-(4-fluoro-2-methyl-phenyl)-pyridin-3-yl]-N-methyl-isobutyramide]
melting point: 135 to 138 °C

Cc1cc(F)ccc1-c1cc(N2CCS(=O)(=O)CC2)ncc1N(C)C(=O)C(C)(C)c1cc(C(F)(F)F)cc(C(F)(F)F)c1 [Form A, 2-(3,5-bis-trifluoromethyl-phenyl)-N-[6-(1,1-dioxo-1λ^6-thiomorpholin-4-yl)-4-(4-fluoro-2-methyl-phenyl)-pyridin-3-yl]-N-methyl-isobutyramide]
bioavailability (general statement of the description) [1]: improved bioavailability
bioavailability among the three crystalline polymorphs A, B, and C ([1]; beagle dogs, powder in gelatine capsules containing sodium dodecyl sulfate): highest bioavailability
AUC(0–24 h) [1, 3]: 3720 ng·h/mL
C(24 h) [1, 3]: 47.6 ng/mL
Cmax [1, 3]: 391 ng/mL
F [1, 3]: 24.5%
F [1, 4]: 18.2%
AUC(0–24 h) [1, 5]: 2490 ng·h/mL
F [1, 5]: 16.2%
AUC(0–24 h) [1, 6]: 2900 ng·h/mL
F [1, 6]: 17.4%
AUC(0-t) [1, 7]: 2520 ng·h/mL
concentration at 24 h [1, 7]: 28.2 ng/mL
Cmax ([1]; male, beagle, dog, plasma, po, 2 mg/kg, dog Lars, single oral 2 mg/kg, fed male beagle dog, cross-over, granulate with 20% SDS in gelatine capsules, read-out: Cmax): 744 ng/mL
concentration at 24 h ([1]; male, beagle, dog, plasma, po, 2 mg/kg, dog Lupo, single oral 2 mg/kg, fed male beagle dog, cross-over, granulate with 20% SDS in gelatine capsules): 40.3 ng/mL
Cmax ([1]; male, beagle, dog, plasma, po, 2 mg/kg, dog Lupo, single oral 2 mg/kg, fed male beagle dog, cross-over, granulate with 20% SDS in gelatine capsules, read-out: Cmax): 424 ng/mL
concentration at 24 h ([1]; male, beagle, dog, plasma, po, 2 mg/kg, dog Mickey, single oral 2 mg/kg, fed male beagle dog, cross-over, granulate with 20% SDS in gelatine capsules): 29.8 ng/mL
Cmax ([1]; male, beagle, dog, plasma, po, 2 mg/kg, dog Mickey, single oral 2 mg/kg, fed male beagle dog, cross-over, granulate with 20% SDS in gelatine capsules, read-out: Cmax): 496 ng/mL
AUC(0-t) [1, 8]: 2910 ng·h/mL
concentration at 24 h [1, 8]: 36.5 ng/mL
Cmax ([1]; male, beagle, dog, plasma, po, 2 mg/kg, mean, n=4, single oral 2 mg/kg, fed male beagle dogs, cross-over, granulate with 20% SDS in gelatine capsules, read-out: Cmax): 514 ng/mL
F [1, 9]: 19.1%
Mean Cmax, higher after form A as compared to form B [1, 10]: 1.7 fold
Mean oral bioavailability, higher after form A as compared to form B [1, 10]: 1.9 fold
reversible uptake of water (DVS) ([2]; listed as modification A): 3.1 %-w/w

Cc1cc(F)ccc1-c1cc(N2CCS(=O)(=O)CC2)ncc1N(C)C(=O)C(C)(C)c1cc(C(F)(F)F)cc(C(F)(F)F)c1 [Form B, 2-(3,5-bis-trifluoromethyl-phenyl)-N-[6-(1,1-dioxo-1λ^6-thiomorpholin-4-yl)-4-(4-fluoro-2-methyl-phenyl)-pyridin-3-yl]-N-methyl-isobutyramide]
AUC(0–24 h) [1, 3]: 949 ng·h/mL
C(24 h) [1, 3]: 17.7 ng/mL
Cmax [1, 3]: 122 ng/mL
F [1, 3]: 6.3%
AUC(0–24 h) [1, 4]: 3880 ng·h/mL
C(24 h) [1, 4]: 51.7 ng/mL
Cmax [1, 4]: 631 ng/mL
F [1, 4]: 21%
AUC(0–24 h) [1, 5]: 1130 ng·h/mL
C(24 h) [1, 5]: 23.2 ng/mL
Cmax [1, 5]: 216 ng/mL
F [1, 5]: 6.8%
AUC(0–24 h) [1, 6]: 1330 ng·h/mL
C(24 h) [1, 6]: 21.4 ng/mL
Cmax [1, 6]: 251 ng/mL
F [1, 6]: 8.2%
AUC(0–24 h) [1, 9]: 1822 ng·h/mL
C(24 h) [1, 9]: 28.5 ng/mL
Cmax [1, 9]: 305 ng/mL
F [1, 9]: 11.0%

Cc1cc(F)ccc1-c1cc(N2CCS(=O)(=O)CC2)ncc1N(C)C(=O)C(C)(C)c1cc(C(F)(F)F)cc(C(F)(F)F)c1 [Form C, 2-(3,5-bis-trifluoromethyl-phenyl)-N-[6-(1,1-dioxo-1λ^6-thiomorpholin-4-yl)-4-(4-fluoro-2-methyl-phenyl)-pyridin-3-yl]-N-methyl-isobutyramide]
AUC(0-t) [1, 11]: 2660 ng·h/mL
concentration at 24 h [1, 11]: 29.2 ng/mL
Cmax ([1]; male, beagle, dog, plasma, po, 2 mg/kg, mean, n=4, single oral 2 mg/kg, fed male beagle dogs, finely milled compound with 10% SDS in gelatine capsules, read-out: Cmax): 510 ng/mL
F ([1]; mean, n=4, single oral 2 mg/kg, fed male beagle dogs, finely milled compound with 10% SDS in gelatine capsules): 13.3%
mean AUC(0–24 h) compared with form A [1, 12]: approximately the same
mean Cmax compared with form A [1, 12]: approximately the same

Cc1cc(F)ccc1-c1cc(N2CCS(=O)(=O)CC2)ncc1N(C)C(=O)C(C)(C)c1cc(C(F)(F)F)cc(C(F)(F)F)c1 [amorphous material, 2-(3,5-bis-trifluoromethyl-phenyl)-N-[6-(1,1-dioxo-1λ^6-thiomorpholin-4-yl)-4-(4-fluoro-2-methyl-phenyl)-pyridin-3-yl]-N-methyl-isobutyramide]
bioavailability (general statement of the description) [1]: improved bioavailability
exposure after oral administration (ranking of forms) ([1]; beagle dogs, amorphous as microsuspension): highest
concentration at 24 h ([1]; beagle, dog, plasma, oral, 5 mg/kg, mean, n=2, 5 mg/kg oral microsuspension, values normalized to 2 mg/kg): 49.2 ng/mL
AUC(0-t) ([1]; beagle, dog, plasma, po, 5 mg/kg, mean, n=2, 5 mg/kg oral microsuspension, values normalized to 2 mg/kg): 4160 ng·h/mL
Cmax ([1]; beagle, dog, plasma, po, 5 mg/kg, mean, n=2, 5 mg/kg oral microsuspension, values normalized to 2 mg/kg, read-out: Cmax): 1220 ng/mL
AUC(0-t) [1, 13]: 10400 ng·h/mL
concentration at 24 h [1, 13]: 123 ng/mL
Cmax ([1]; beagle, dog, plasma, po, 5 mg/kg, mean, n=2, single oral 5 mg/kg by gavage as microsuspension, fed dogs, read-out: Cmax): 3050 ng/mL
F ([1]; mean, n=2, 5 mg/kg oral microsuspension, values normalized to 2 mg/kg): 24.5%
reversible uptake of water (DVS) [2]: 0.8 %-w/w
